Source: PubChem BioAssay (NCI)
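Protocol summary: plate cells (96-well), add compound at 5 concentrations, incubate 48 h, interpolate endpoints linearly. TGI: total growth inhibition.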

How the values were obtained:
Assay in all cases: NCI-60 cell line screen, 48 h
786-0 renal = tested on: 786-0 renal
A549 NSCLC = tested on: A549 NSCLC
ACHN renal = tested on: ACHN renal
CAKI-1 renal = tested on: CAKI-1 renal
CCRF-CEM leukemia = tested on: CCRF-CEM leukemia
COLO 205 colon = tested on: COLO 205 colon
DMS 114 small cell lung = tested on: DMS 114 small cell lung
DMS 273 small cell lung = tested on: DMS 273 small cell lung
EKVX NSCLC = tested on: EKVX NSCLC
HCC-2998 colon = tested on: HCC-2998 colon
HCT-15 colon = tested on: HCT-15 colon
HL-60(TB) leukemia = tested on: HL-60(TB) leukemia
HOP-18 NSCLC = tested on: HOP-18 NSCLC
HOP-62 NSCLC = tested on: HOP-62 NSCLC
HOP-92 NSCLC = tested on: HOP-92 NSCLC
HT29 colon = tested on: HT29 colon
IGROV1 ovarian = tested on: IGROV1 ovarian
K-562 leukemia = tested on: K-562 leukemia
KM12 colon = tested on: KM12 colon
KM20L2 colon = tested on: KM20L2 colon
LOX IMVI melanoma = tested on: LOX IMVI melanoma
LXFL 529 NSCLC = tested on: LXFL 529 NSCLC
M14 melanoma = tested on: M14 melanoma
M19-MEL melanoma = tested on: M19-MEL melanoma
MALME-3M melanoma = tested on: MALME-3M melanoma
MOLT-4 leukemia = tested on: MOLT-4 leukemia
NCI-H23 lung = tested on: NCI-H23 lung
NCI-H460 lung = tested on: NCI-H460 lung
NCI-H522 lung = tested on: NCI-H522 lung
OVCAR-3 ovarian = tested on: OVCAR-3 ovarian
OVCAR-4 ovarian = tested on: OVCAR-4 ovarian
OVCAR-5 ovarian = tested on: OVCAR-5 ovarian
OVCAR-8 ovarian = tested on: OVCAR-8 ovarian
RPMI-8226 leukemia = tested on: RPMI-8226 leukemia
RXF 393 renal = tested on: RXF 393 renal
SF-268 CNS = tested on: SF-268 CNS
SF-295 CNS = tested on: SF-295 CNS
SF-539 CNS = tested on: SF-539 CNS
SK-MEL-2 melanoma = tested on: SK-MEL-2 melanoma
SK-MEL-28 melanoma = tested on: SK-MEL-28 melanoma
SK-MEL-5 melanoma = tested on: SK-MEL-5 melanoma
SK-OV-3 ovarian = tested on: SK-OV-3 ovarian
SN12C renal = tested on: SN12C renal
SNB-19 CNS = tested on: SNB-19 CNS
SNB-75 CNS = tested on: SNB-75 CNS
SW-620 colon = tested on: SW-620 colon
TK-10 renal = tested on: TK-10 renal
U251 CNS = tested on: U251 CNS
UACC-257 melanoma = tested on: UACC-257 melanoma
UACC-62 melanoma = tested on: UACC-62 melanoma
UO-31 renal = tested on: UO-31 renal
A498 renal = tested on: A498 renal
DLD-1 colon = tested on: DLD-1 colon
HCT-116 colon = tested on: HCT-116 colon
NCI-H226 lung = tested on: NCI-H226 lung
SNB-78 CNS = tested on: SNB-78 CNS
XF 498 CNS = tested on: XF 498 CNS
SR leukemia = tested on: SR leukemia

Measured: TGI

OC1c2ccccc2C2(O)C1C(c1ccccc1)C(c1ccccc1)C2(O)c1ccccc1 (stereo not drawn)
43.5 µM: OVCAR-8 ovarian
41.7 µM: NCI-H23 lung
> 100 µM: CAKI-1 renal | CCRF-CEM leukemia | OVCAR-4 ovarian | SNB-19 CNS
25.7 µM: SK-MEL-28 melanoma
19.5 µM: NCI-H460 lung
76.2 µM: RXF 393 renal
64 µM: SK-OV-3 ovarian
52 µM: SW-620 colon
82.9 µM: IGROV1 ovarian
25.3 µM: KM12 colon
26 µM: SF-539 CNS
70.8 µM: EKVX NSCLC
41.8 µM: DMS 114 small cell lung
28.6 µM: HCC-2998 colon
34 µM: HOP-18 NSCLC
22.5 µM: KM20L2 colon
46.2 µM: SNB-75 CNS
54.6 µM: LXFL 529 NSCLC
30.7 µM: COLO 205 colon
65.1 µM: RPMI-8226 leukemia
31.9 µM: HL-60(TB) leukemia
31.1 µM: 786-0 renal
31.7 µM: NCI-H522 lung
38 µM: M19-MEL melanoma
29.7 µM: ACHN renal | UACC-257 melanoma
21.1 µM: LOX IMVI melanoma
22.2 µM: HCT-15 colon
55.5 µM: UO-31 renal
32.9 µM: SN12C renal
23.1 µM: U251 CNS
50 µM: K-562 leukemia
25.5 µM: SF-295 CNS
23.9 µM: HOP-92 NSCLC
26.9 µM: MALME-3M melanoma | OVCAR-3 ovarian
81.2 µM: A549 NSCLC
26.7 µM: OVCAR-5 ovarian
22.8 µM: HT29 colon | MOLT-4 leukemia
68.8 µM: SF-268 CNS
28.4 µM: UACC-62 melanoma
28.3 µM: M14 melanoma
21.7 µM: SK-MEL-5 melanoma
23.3 µM: SK-MEL-2 melanoma
85.4 µM: TK-10 renal
28.2 µM: HOP-62 NSCLC
23.5 µM: DMS 273 small cell lung

CS(=O)(=O)OCCN1CCN(C(=O)c2cccc3c(Nc4ccc(S(=O)(=O)N=C(N)N)cc4)c4ccccc4nc23)CC1
> 100 µM: 786-0 renal | A498 renal | A549 NSCLC | ACHN renal | CAKI-1 renal | CCRF-CEM leukemia | COLO 205 colon | DLD-1 colon | DMS 114 small cell lung | DMS 273 small cell lung | HCC-2998 colon | HCT-116 colon | HCT-15 colon | HL-60(TB) leukemia | HOP-62 NSCLC | HOP-92 NSCLC | HT29 colon | IGROV1 ovarian | K-562 leukemia | KM12 colon | KM20L2 colon | M14 melanoma | M19-MEL melanoma | MALME-3M melanoma | MOLT-4 leukemia | NCI-H226 lung | NCI-H23 lung | NCI-H460 lung | OVCAR-3 ovarian | OVCAR-4 ovarian | OVCAR-5 ovarian | OVCAR-8 ovarian | RPMI-8226 leukemia | RXF 393 renal | SF-268 CNS | SF-295 CNS | SF-539 CNS | SK-MEL-28 melanoma | SK-MEL-5 melanoma | SK-OV-3 ovarian | SN12C renal | SNB-19 CNS | SNB-75 CNS | SNB-78 CNS | TK-10 renal | U251 CNS | UACC-257 melanoma | UACC-62 melanoma | UO-31 renal | XF 498 CNS

COc1ccc(NC(=O)C(=O)Cc2nc3ccc([N+](=O)[O-])cc3[nH]c2=O)c(OC)c1
> 100 µM: 786-0 renal | A498 renal | A549 NSCLC | ACHN renal | CAKI-1 renal | CCRF-CEM leukemia | COLO 205 colon | DLD-1 colon | DMS 114 small cell lung | DMS 273 small cell lung | EKVX NSCLC | HCC-2998 colon | HCT-116 colon | HCT-15 colon | HL-60(TB) leukemia | HOP-18 NSCLC | HOP-92 NSCLC | HT29 colon | IGROV1 ovarian | K-562 leukemia | KM12 colon | KM20L2 colon | LOX IMVI melanoma | LXFL 529 NSCLC | M14 melanoma | M19-MEL melanoma | MALME-3M melanoma | MOLT-4 leukemia | NCI-H226 lung | NCI-H23 lung | NCI-H460 lung | NCI-H522 lung | OVCAR-3 ovarian | OVCAR-4 ovarian | OVCAR-5 ovarian | RXF 393 renal | SF-295 CNS | SF-539 CNS | SK-MEL-2 melanoma | SK-MEL-28 melanoma | SK-MEL-5 melanoma | SK-OV-3 ovarian | SNB-19 CNS | SNB-75 CNS | SW-620 colon | TK-10 renal | UACC-257 melanoma | UACC-62 melanoma | UO-31 renal

CCCCc1c2c(nc3c1CCc1cc4cc5c(nc4nc1-3)-c1nc3c(c(CCCC)c1CC5)CCCC3)CCCC2
89.1 µM: NCI-H226 lung
52 µM: UACC-62 melanoma
71.4 µM: RXF 393 renal
69.3 µM: KM20L2 colon
31.5 µM: HT29 colon
88 µM: DMS 114 small cell lung
> 100 µM: 786-0 renal | A549 NSCLC | ACHN renal | CCRF-CEM leukemia | COLO 205 colon | DLD-1 colon | DMS 273 small cell lung | EKVX NSCLC | HCC-2998 colon | HCT-116 colon | HCT-15 colon | HL-60(TB) leukemia | HOP-62 NSCLC | IGROV1 ovarian | K-562 leukemia | KM12 colon | LOX IMVI melanoma | LXFL 529 NSCLC | M14 melanoma | M19-MEL melanoma | MALME-3M melanoma | MOLT-4 leukemia | NCI-H23 lung | NCI-H460 lung | NCI-H522 lung | OVCAR-8 ovarian | RPMI-8226 leukemia | SF-268 CNS | SF-295 CNS | SF-539 CNS | SK-MEL-28 melanoma | SK-OV-3 ovarian | SN12C renal | SNB-19 CNS | SNB-75 CNS | SNB-78 CNS | SR leukemia | SW-620 colon | TK-10 renal | U251 CNS | UACC-257 melanoma | UO-31 renal
